Assay results from PubChem BioAssay AID1591 (Sanford-Burnham Center for Chemical Genomics, 2009).

System: human plasma stability, LC/MS/MS, 180 min
Experiment: human plasma degradation, percent remaining – biochemical, LC/MS/MS, 180 min, dry powder, ADME assay, late-stage follow-up (AID 1591)
Conditions: at 1 µM; hits give low values

percent remaining: 82.6%
Compound: C=CCn1c(SCC(=O)c2ccc(O)c(O)c2)nnc1-c1ccccc1OC
